Like-named read-outs stand apart in the source and are kept apart here.
Experiments:
[1] = target: T1, hAT1R (Homo sapiens, UniProt P30556); experiment: cell-based
T1 sequence (P30556 1-359): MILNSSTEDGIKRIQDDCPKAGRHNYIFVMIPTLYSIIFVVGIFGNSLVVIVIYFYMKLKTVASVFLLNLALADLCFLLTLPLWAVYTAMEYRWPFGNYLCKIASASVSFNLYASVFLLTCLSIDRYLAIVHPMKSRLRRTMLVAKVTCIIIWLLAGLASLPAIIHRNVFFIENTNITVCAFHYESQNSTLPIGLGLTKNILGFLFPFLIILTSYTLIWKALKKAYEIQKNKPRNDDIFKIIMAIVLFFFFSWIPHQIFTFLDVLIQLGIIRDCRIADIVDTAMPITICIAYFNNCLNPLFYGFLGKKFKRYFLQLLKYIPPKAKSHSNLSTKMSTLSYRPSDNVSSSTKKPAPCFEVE

[2] = target: T2, AGTR1 (Homo sapiens, UniProt P30556); experiment: DiscoveRx β-arrestin2 recruitment assay (enzyme complementation, Pathunter CHO-K1 AGTR1 β-arrestin cell line); type: cell-based; settings: DiscoveRx β-arrestin2 recruitment; for DiscoveRx β-arrestin2 Ymax (%): maximal response
T2 construct: host or cells: Pathunter CHO-K1 AGTR1 β-arrestin cell line (CHO-K1)
T2 sequence (P30556 1-359): T1 sequence (P30556 1-359)
Summary of the method: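 Chemiluminescent enzyme-complementation read-out of β-arrestin2 recruitment to AGTR1 in engineered CHO-K1 cells after 90 min compound exposure at 37° C. Values are 4-parameter logistic EC50s in agonist mode, IC50s in antagonist mode, with efficacy relative to the maximal All response.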

[3] = target: T1, hAT1R; experiment: cell-based; settings: agonist mode; for EC50: read-out: BRET P63 EC50
[4] = target: T2, AGTR1; experiment: DiscoveRx IP1 accumulation assay (HTRF), agonist mode, Pathunter CHO-K1 AGTR1 β-arrestin cell line; type: cell-based; settings: for EC50: read-out: IP-1 EC50
Summary of the method: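 Agonist mode in CHO-K1 AGTR1 β-arrestin cells plated 14-16 h before; compounds at varying concentrations for 90 min at 37° C, IP1 accumulation read by HTRF (D2-conjugate and anti-IP1 cryptate, 20 min room temperature). EC50 from 4-parameter logistic fit; activity given as percentage of maximal AII effect.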

[5] = section of the 42nd table ending at r951, example numbering restarts after the DiscoveRx section, read-out: β-arrestin2 EC50
[6] = Low AT1R Expression, read-out: BRET β-Arrestin2 Low AT1R Expression EC50

Row | SMILES | EC50 [1, 5] | EC50 [2] | DiscoveRx β-arrestin2 Ymax (%) [2] | BRET P63 Ymax [3] | EC50 [3] | IP-1 Ymax (%) [4] | EC50 [4] | EC50 [1, 6] | BRET β-Arrestin2 Low AT1R Expression Ymax (%) ([1]; Low AT1R Expression)
1 | CCC1=NC2(CCOC2)C(=O)N1Cc1ccc(-c2cc(-c3ccccc3O)ccc2-c2nnn[nH]2)cc1 (single isomer, unassigned) [Example 167] | 0.0583 µM | 0.036 µM | 78.8% | 32.0% | 0.0915 µM | 32.4% | 0.165 µM |  | 
2 | CCC1=NC2(CCOC2)C(=O)N1Cc1ccc(-c2cc(-c3ccccc3)ccc2-c2nnn[nH]2)cc1 (single isomer, unassigned) [Example 168] | 0.998 µM | 0.352 µM | 34.5% |  | > 10 µM | 13.8% | 0.826 µM |  | 
3 | CCC1=NC2(CCOC2)C(=O)N1Cc1ccc(-c2cc(-c3cccc(C)c3)ccc2-c2nnn[nH]2)cc1 (single isomer, unassigned) [Example 169] | 0.271 µM | 0.111 µM | 50.1% | 13.3% | 0.127 µM | 14.5% | 0.484 µM |  | 
4 | CCC1=NC2(CCOC2)C(=O)N1Cc1ccc(-c2cc(-c3ccccc3O)ccc2-c2nnn[nH]2)cc1 (single isomer, unassigned) [Example 170] | 0.59 µM | 0.17 µM | 63.4% | 13.5% | 0.633 µM | 13.2% | 0.469 µM |  | 
5 | CCc1nc2c(C)cc(C)nc2n1Cc1ccc(-c2cc(-c3ccc(OC)cc3)ccc2-c2nn[nH]n2)cc1 [Example 14] |  | 0.0103 µM | 20.8% |  | > 10 µM | 8.1% | 0.0145 µM | > 10 µM | 
6 | CCc1nc2c(C)cc(C)nc2n1Cc1ccc(-c2cc(-c3cc(OC)ccn3)ccc2-c2nn[nH]n2)cc1 [Example 62, 2-Ethyl-3-((5′-(4-methoxypyridin-2-yl)-2′-(2H-tetrazol-5-yl)-[1,1′-biphenyl]-4-yl)methyl)-5,7-dimethyl-3H-imidazo[4,5-b]pyridine] |  | 0.0151 µM | 50.0% | 35.7% | 0.0042 µM | 22.7% | 0.029 µM | 0.0037 µM | 74.7%
7 | CCc1nc2c(C)cc(C)nc2n1Cc1ccc(-c2cc(-c3ccc(F)cn3)ccc2-c2nn[nH]n2)cc1 [Example 65] |  | 0.0273 µM | 31.0% | 13.1% | 0.0172 µM | 12.2% | 0.0627 µM | 0.0236 µM | 54.5%
8 | CCc1nc2c(C)cc(C)nc2n1Cc1ccc(-c2cc(-c3cc(C)c(F)cn3)ccc2-c2nn[nH]n2)cc1 [Example 66] |  | 0.0058 µM | 25.8% |  | > 10 µM | 6.9% | 0.0085 µM | 0.0166 µM | 39.4%
9 | CCc1nc2c(C)cc(C)nc2n1Cc1ccc(-c2cc(-c3cc(C(F)F)ccn3)ccc2-c2nn[nH]n2)cc1 [Example 67] |  | 0.0193 µM | 30.9% | 14.3% | 0.0073 µM | 10.2% | 0.0265 µM | 0.0145 µM | 40.7%
10 | CCc1nc2c(C)cc(C)nc2n1Cc1ccc(-c2cc(C3CCCOC3)ccc2-c2nn[nH]n2)cc1 (stereo not drawn) [Example 79] |  | 0.286 µM | 31.7% |  | > 10 µM | 9.4% | 0.499 µM | 0.464 µM | 21.1%
11 | CCc1nc2c(C)cc(C)nc2n1Cc1ccc(-c2cc(C3CCCC3)ccc2-c2nn[nH]n2)cc1 [Example 80, 3-((5′-cyclopentyl-2′-(2H-tetrazol-5-yl)-[1,1′-biphenyl]-4-yl)methyl)-2-ethyl-5,7-dimethyl-3H-imidazo[4,5-b]pyridine] |  | 0.0734 µM | 33.5% |  | > 100 µM | 14.6% | 0.425 µM | 0.0304 µM | 29.8%
12 | CCc1nc2c(C)cc(C)nc2n1Cc1ccc(-c2cc(C3CCCCCC3)ccc2-c2nn[nH]n2)cc1 [Example 81] |  | 0.0383 µM | 17.6% |  | > 100 µM |  | > 100 µM | 0.0383 µM | 16.3%
13 | CCc1nc2c(C)cc(C)nc2n1Cc1ccc(-c2cc(N3CCCCC3)ccc2-c2nn[nH]n2)cc1 [Example 91] |  | 0.0606 µM | 22.6% |  | > 100 µM |  | > 100 µM | > 10 µM | 
14 | CC1=NC2(CCCC2)C(=O)N1Cc1ccc(-c2cc(-c3ccccc3)ccc2-c2nn[nH]n2)cc1 [Example 110, 3-((6′-(2H-tetrazol-5-yl)-[1,1′:3′,1″-terphenyl]-4-yl)methyl)-2-methyl-1,3-diazaspiro[4.4]non-1-en-4-one] |  | 0.0359 µM | 26.9% |  | > 100 µM | 9.0% | 0.108 µM | 0.0955 µM | 22.1%
15 | CC1=NC2(CCCC2)C(=O)N1Cc1ccc(-c2cc(-c3cc(C)ccn3)ccc2-c2nn[nH]n2)cc1 [Example 111, 2-methyl-3-((5′-(4-methylpyridin-2-yl)-2′-(2H-tetrazol-5-yl)-[1,1′-biphenyl]-4-yl)methyl)-1,3-diazaspiro[4.4]non-1-en-4-one] |  | 0.0064 µM | 63.3% | 24.1% | 0.0223 µM | 15.7% | 0.0126 µM | 0.0147 µM | 80.7%
16 | CCC1=NC2(CCCC2)C(=O)N1Cc1ccc(-c2cc(-c3cc(C)ccn3)ccc2-c2nn[nH]n2)cc1 [Example 113] |  | 0.0149 µM | 66.3% | 28.6% | 0.0172 µM | 17.8% | 0.0835 µM | 0.0098 µM | 88.6%
17 | CCCC1=NC2(CCCC2)C(=O)N1Cc1ccc(-c2cc(-c3cc(OC)ccn3)ccc2-c2nn[nH]n2)cc1 [Example 115, 3-((5′-(4-methoxypyridin-2-yl)-2′-(2H-tetrazol-5-yl)-[1,1′-biphenyl]-4-yl)methyl)-2-propyl-1,3-diazaspiro[4.4]non-1-en-4-one] |  | 0.0133 µM | 30.8% | 22.1% | 0.0119 µM | 13.6% | 0.0393 µM | 0.0168 µM | 53.3%
18 | CCCC1=NC2(CCCC2)C(=O)N1Cc1ccc(-c2cc(-c3cc(C)ccn3)ccc2-c2nn[nH]n2)cc1 [Example 116, 3-((5′-(4-methylpyridin-2-yl)-2′-(2H-tetrazol-5-yl)-[1,1′-biphenyl]-4-yl)methyl)-2-propyl-1,3-diazaspiro[4.4]non-1-en-4-one] |  | 0.0141 µM | 42.1% | 27.7% | 0.0147 µM | 15.1% | 0.0397 µM | 0.0172 µM | 81.9%
19 | Cc1ccnc(-c2ccc(-c3nn[nH]n3)c(-c3ccc(CN4C(=O)C5(CCCC5)N=C4C(C)C)cc3)c2)c1 [Example 118] |  | 0.066 µM | 50.0% | 21.8% | 0.102 µM | 17.1% | 0.155 µM | 0.173 µM | 78.7%
20 | COc1ccnc(-c2ccc(-c3nn[nH]n3)c(-c3ccc(CN4C(=O)C5(CCCC5)N=C4C4CC4)cc3)c2)c1 [Example 119, 2-cyclopropyl-3-((5′-(4-methoxypyridin-2-yl)-2′-(2H-tetrazol-5-yl)-[1,1′-biphenyl]-4-yl)methyl)-1,3-diazaspiro[4.4]non-1-en-4-one] |  | 0.0475 µM | 51.4% | 21.8% | 0.0405 µM | 18.4% | 0.108 µM | 0.0539 µM | 63.9%

Reference: patent US12037324B2, “Biarylmethyl heterocycles” (Université de Montréal, priority 2016, dated 2024)
